From US20020055470A1, “Circumvention of human tumor drug resistance” (CITY OF HOPE, priority 1987, published 2002)
Like-named read-outs stand apart in the source and are kept apart here.

Legend:
Type in all cases: cell-based, human
A2780DDP [1] = assay: Inhibition of cell growth (cells counted on Coulter Counter after six days); details: for Ratio (degree of resistance or cross-resistance): A2780DDP vs A2780S EC50
Procedure: The experiment was conducted in triplicate in the manner described with respect to Table I. […]
(§1) Table VI includes EC50 data further exemplifying the invention. The data reported by Table VI was obtained by substantially the same procedure as that described with respect to Table III. In Table VI, “(C)” indicates continuous exposure, “(1 h)” and “(2 h)” indicate exposure for 1 hour and 2 hours; “HU” indicates hydroxyurea.

K562-araC = assay: Inhibition of cell growth, Table VI; details: K562-araC, (C) continuous exposure
Procedure: as §1

HCF-7 DDP = assay: Inhibition of cell growth, Table VI; details: HCF-7 DDP, (C) continuous exposure
Procedure: as §1

K562S = assay: Inhibition of cell growth, Table VI; details: (C) continuous exposure
Procedure: as §1

K562-DDP = assay: Inhibition of cell growth, Table VI; details: for EC50: K562-DDP, (C) continuous exposure
A2780S = assay: Inhibition of cell growth (cells counted on Coulter Counter after six days)
Procedure: The experiment was conducted in triplicate in the manner described with respect to Table I.
A2780 cells were well-plated (35 mm disnes) and 24 hours later the cells were treated with cisplatin for one hour, washed out and then treated with 6 concentrations of from 1 μM to 100 μM increased in equal increments of a nucleoside analog in saline. Cells were then washed and incubated for six days. The cells were counted on a Coulter Counter and the experiment was done in triplicate.
as §1

HCT8DDP = assay: as above; details: HCT8-DDP, (C) continuous exposure, read-out: EC50
Procedure: as §1

HCT8S = assay: as above; details: (C) continuous exposure, read-out: EC50
Procedure: as §1

HCF7S = assay: Inhibition of cell growth, Table VI; details: (C) continuous exposure
K562-VP16 = assay: Inhibition of cell growth, Table VI; details: (C) continuous exposure
A2780DDP [2] = assay: Dual labeled (14C/3H) DNA synthesis and degradation in response to cisplatin; incorporation of labelled nucleoside analogs; details: A2780DDP
Description: A dual labeled (^14C/^3H) experiment was designed to measure simultaneously DNA synthesis and degradation in response to cisplatin.

[3] = A2780 DDP, (C) continuous exposure, read-out: EC50
[4] = A2780S, (C) continuous exposure, read-out: EC50
[5] = 0 min after cisplatin (20 μM) treatment
[6] = 45 min after cisplatin (20 μM) treatment
[7] = 90 min after cisplatin (20 μM) treatment
[8] = 180 min after cisplatin (20 μM) treatment

| EC50 (K562-araC) | EC50 (K562S) | EC50 (K562-DDP) | EC50 (K562-VP16) | Compound | EC50 (A2780DDP [1]; [3]) | EC50 (HCF-7 DDP) | EC50 (A2780S; [4]) | EC50 (HCT8DDP) | EC50 (HCT8S) | EC50 (HCF7S) | Ratio (degree of resistance or cross-resistance) (A2780DDP [1]; continuous exposure) | Incorporation of labelled nucleoside analog into macromolecules (A2780DDP [2]; [5]) | Incorporation of labelled nucleoside analog into macromolecules (A2780DDP [2]; [6]) | Incorporation of labelled nucleoside analog into macromolecules (A2780DDP [2]; [7]) | Incorporation of labelled nucleoside analog into macromolecules (A2780DDP [2]; [8]) | also measured |
| --- | --- | --- | --- | --- | --- | --- | --- | --- | --- | --- | --- | --- | --- | --- | --- | --- |
| 150 µM | 160 µM | 190 µM | 170 µM | Nc1nc2c(ncn2[C@H]2CC[C@@H](CO)O2)c(=O)[nH]1 [ddG, 2′,3′-dideoxyquanosene] | 110 µM | 180 µM | 60 µM | 45 µM | 35 µM | 210 µM | – | – | – | – | – | – |
| – | – | – | – | Nc1ncnc2c1ncn2[C@@H]1O[C@H](CO)[C@@H](O)[C@@H]1O [araA] | – | – | – | – | – | – | +4.0 | 19.01 | 24.21 | 27.91 | 32.70 | EC50 (A2780DDP [1]; continuous exposure, proliferation during 6 days, mean + SD, read-out: EC50 A2780DDP): 64.7 µM; EC50 (A2780S; continuous exposure, proliferation during 6 days, mean + SD, read-out: EC50 A2780S): 16.2 µM |
| 40 µM | 40 µM | 140 µM | 40 µM | NC(=O)NO [NU, hydroxyurea] | 60 µM | 200 µM | 75 µM | 100 µM | 100 µM | 100 µM | – | – | – | – | – | – |
| 36 µM | 37.5 µM | 28 µM | 35 µM | Nc1ncnc2c1ncn2[C@H]1CC[C@@H](CO)O1 [ddA, 2′3′-dideoxyadenosine] | 25 µM | 30 µM | 10 µM | 36 µM | 33 µM | 30 µM | – | – | – | – | – | – |
| > 400 µM | > 400 µM | > 400 µM | 200 µM | Cc1cn([C@H]2CC[C@@H](CO)O2)c(=O)[nH]c1=O [ddT, 2′,3′-dideoxythymidine] | > 750 µM | > 500 µM | 110 µM | > 500 µM | > 150 µM | > 500 µM | – | – | – | – | – | – |
| – | – | – | – | Nc1ccn([C@H]2CC[C@@H](CO)O2)c(=O)n1 [ddC, dideoxycytidine] | – | – | – | – | – | – | +2.6 | 15.09 | 36.94 | 42.61 | 45.93 | EC50 (A2780DDP [1]; Homo sapiens, 144 h, continuous exposure, proliferation during 6 days, mean + SD, read-out: EC50 A2780DDP): 4 µM; EC50 (A2780DDP [1]; Homo sapiens, A2780 DDP, (C) continuous exposure, read-out: EC50): 4 µM; EC50 (K562-araC; Homo sapiens): > 300 µM; EC50 (HCF-7 DDP; Homo sapiens): > 100 µM; EC50 (K562S; Homo sapiens): 25 µM; EC50 (K562-DDP; Homo sapiens): 5 µM; factor more sensitive, cispt resistant vs sensitive K562 cells (K562-DDP; K562 human leukemia cells): 5; EC50 (A2780S; Homo sapiens, A2780S, 144 h, continuous exposure, proliferation during 6 days, mean + SD, read-out: EC50 A2780S): 1.5 µM; EC50 (A2780S; Homo sapiens, A2780S, (C) continuous exposure, read-out: EC50): 1.5 µM; EC50 (HCT8DDP; Homo sapiens): 23 µM; EC50 (HCT8S; Homo sapiens): 2 µM; EC50 (HCF7S; Homo sapiens): 2.5 µM; EC50 (K562-VP16; Homo sapiens): 100 µM |
